In US20230081426A1, “COMPOUNDS AND METHODS FOR KRAS MODULATION AND INDICATIONS THEREFOR” (Plexxikon Inc., priority 2020, published 2023):

How the values were obtained:
[1] = target: T1, G12D-mutant human KRAS (amino acid residues 1-188) (Homo sapiens, UniProt P01116, G12D); assay: KRAS Binding Disruption Assay (AlphaScreen; biotinylated KRpep-2d analogue or RAF1-RBD), G12D; details: KRAS G12D; geometric mean; read-out: KRAS GMean IC50 (uM) MUTATION: G12D
T1 construct: G12D or G12C-mutant human KRAS (amino acid residues 1-188) with FLAG tag; made in house; host or cells: E. coli
Outline: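 Compounds are titrated against 5-20 nM mutant KRAS and 5-20 nM of either a biotinylated KRpep-2d analogue or RAF1-RBD, incubated 1 h at 25° C. Disruption is detected as reduced Alpha signal after 1 h with donor and acceptor beads at 10 μg/mL.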

[2] = target: T2, G12V-mutant human KRAS (amino acid residues 1-188) (Homo sapiens, UniProt P01116, G12V); assay: KRAS Binding Competition Assay (AlphaScreen; biotinylated KRpep-2d analogue), G12V; details: geometric mean, read-out: KRAS GMean IC50 (uM) MUTATION: G12V
T2 construct: G12V-mutant human KRAS (amino acid residues 1-188) with FLAG tag was purified from E. coli; made in house; host or cells: E. coli

Row | IC50 [1] | IC50 [2] | SMILES
1 | 0.0001 to 10 µM | 0.0001 to 10 µM | NS(=O)(=O)C1(C(=O)N2[C@@H]3CC[C@H]2CN(c2nc(OCC45CCCN4CCC5)nc4c(F)c(-c5cc(O)cc6ccccc56)ccc24)C3)CC1 [P-0452, 1-((1R,5S)-3-(8-fluoro-7-(3-hydroxynaphthalen-1-yl)-2-((tetrahydro-1H-pyrrolizin-7a(5H)-yl)methoxy)quinazolin-4-yl)-3,8-diazabicyclo[3.2.1]octane-8-carbonyl)cyclopropane-1-sulfonamide]
2 | 10 to 100 µM | 10 to 100 µM | CN1CCC[C@H]1COc1nc(N2[C@@H]3CC[C@H]2CN(C(=O)C(N)=O)C3)c2ccc(-c3cc(O)cc4ccccc34)cc2n1 [P-0217, 2-((1R,5S)-8-(7-(3-hydroxynaphthalen-1-yl)-2-(((S)-1-methylpyrrolidin-2-yl)methoxy)quinazolin-4-yl)-3,8-diazabicyclo[3.2.1]octan-3-yl)-2-oxoacetamide]
3 | 100 to 1000 µM | 100 to 1000 µM | CN1CCC[C@H]1COc1nc(N2[C@@H]3CC[C@H]2CNC3)c2ccc(-c3cccc(O)c3)cc2n1 [P-0285, 3-(4-((1R,5S)-3,8-diazabicyclo[3.2.1]octan-8-yl)-2-(((S)-1-methylpyrrolidin-2-yl)methoxy)quinazolin-7-yl)phenol]
4 | 0.0001 to 10 µM | 10 to 100 µM | O=Cc1cccc2[nH]cc(-c3c(F)cc4c(N5C[C@H]6CC[C@@H](C5)N6)nc(OCC56CCCN5CCC6)nc4c3F)c12 [P-0624, 3-(4-((1R,5S)-3,8-diazabicyclo[3.2.1]octan-3-yl)-6,8-difluoro-2-((tetrahydro-1H-pyrrolizin-7a(5H)-yl)methoxy)quinazolin-7-yl)-1H-indole-4-carbaldehyde]
5 | 0.0001 to 10 µM | 0.0001 to 10 µM | CN1CCC(CC(=O)N2[C@@H]3CC[C@H]2CN(c2nc(OCC45CCCN4CCC5)nc4c(F)c(-c5cc(O)cc6ccccc56)ccc24)C3)CC1 [P-0149, 1-((1R,5S)-3-(8-fluoro-7-(3-hydroxynaphthalen-1-yl)-2-((tetrahydro-1H-pyrrolizin-7a(5H)-yl)methoxy)quinazolin-4-yl)-3,8-diazabicyclo[3.2.1]octan-8-yl)-2-(1-methylpiperidin-4-yl)ethan-1-one]
6 | 10 to 100 µM | 10 to 100 µM | CN1CCN(CCCC(=O)N2C3CCC2CN(c2nc(OC[C@@H]4CCCN4C)nc4c(F)c(-c5cc(O)cc6ccccc56)ccc24)CC3)CC1 (stereo partly drawn) [P-0247, 1-(3-(8-fluoro-7-(3-hydroxynaphthalen-1-yl)-2-(((S)-1-methylpyrrolidin-2-yl)methoxy)quinazolin-4-yl)-3,9-diazabicyclo[4.2.1]nonan-9-yl)-4-(4-methylpiperazin-1-yl)butan-1-one]
7 | 0.0001 to 10 µM | 10 to 100 µM | CN1CCC[C@H]1COc1nc(N2C[C@H]3CC[C@@H](C2)N3)c2ccc(N3CC(O)Cc4ccccc43)c(F)c2n1 (stereo partly drawn) [P-0307, 1-(4-((1R,5S)-3,8-diazabicyclo[3.2.1]octan-3-yl)-8-fluoro-2-(((S)-1-methylpyrrolidin-2-yl)methoxy)quinazolin-7-yl)-1,2,3,4-tetrahydroquinolin-3-ol]
8 | 10 to 100 µM | 10 to 100 µM | CN1CCC[C@H]1COc1nc(N2[C@@H]3CC[C@H]2CN(C(=O)CNS(N)(=O)=O)C3)c2ccc(-c3cc(O)cc4ccccc34)cc2n1 [P-0316, N-(2-((1R,5S)-8-(7-(3-hydroxynaphthalen-1-yl)-2-(((S)-1-methylpyrrolidin-2-yl)methoxy)quinazolin-4-yl)-3,8-diazabicyclo[3.2.1]octan-3-yl)-2-oxoethyl)aminosulfonamide]
9 | 100 to 1000 µM | 100 to 1000 µM | CN1CCC[C@H]1COc1nc(N2C[C@H]3CC[C@@H](C2)N3)c2ccc(-c3ccccc3)cc2n1 [P-0151, 4-((1R,5S)-3,8-diazabicyclo[3.2.1]octan-3-yl)-2-(((S)-1-methylpyrrolidin-2-yl)methoxy)-7-phenylquinazoline]
10 | 10 to 100 µM | 0.0001 to 10 µM | CN1CCC[C@H]1COc1nc(N2[C@@H]3CC[C@H]2CN(C(=O)c2c[nH]cn2)C3)c2ccc(-c3cc(O)cc4ccccc34)cc2n1 [P-0350, ((1R,5S)-8-(7-(3-hydroxynaphthalen-1-yl)-2-(((S)-1-methylpyrrolidin-2-yl)methoxy)quinazolin-4-yl)-3,8-diazabicyclo[3.2.1]octan-3-yl)(1H-imidazol-4-yl)methanone]
11 | 100 to 1000 µM | 100 to 1000 µM | CN1CCC[C@H]1COc1nc(N2CC3CCC(C2)N3)c2ccc(-c3cccc(NS(C)(=O)=O)c3)cc2n1 [P-0170, N-(3-(4-((1R,5S)-3,8-diazabicyclo[3.2.1]octan-3-yl)-2-(((S)-1-methylpyrrolidin-2-yl)methoxy)quinazolin-7-yl)phenyl)meanesulfonamide]
12 | 10 to 100 µM | 10 to 100 µM | Cc1cccc2c(O)nn(-c3ccc4c(N5C[C@H]6CC[C@@H](C5)N6)nc(OC[C@@H]5CCCN5C)nc4c3F)c12 [P-0462, 1-(4-((1R,5S)-3,8-diazabicyclo[3.2.1]octan-3-yl)-8-fluoro-2-(((S)-1-methylpyrrolidin-2-yl)methoxy)quinazolin-7-yl)-7-methyl-1H-indazol-3-ol]
13 | 0.0001 to 10 µM | 10 to 100 µM | CN1CCC(Cc2nc(N3[C@@H]4CC[C@H]3CNC4)c3ccc(-c4cc(O)cc5ccccc45)cc3n2)CC1 [P-0201, 4-(4-((1R,5S)-3,8-diazabicyclo[3.2.1]octan-8-yl)-2-((1-methylpiperidin-4-yl)methyl)quinazolin-7-yl)naphthalen-2-ol]
14 | 0.0001 to 10 µM | 100 to 1000 µM | Cc1cccc2c1N(c1ncc3c(N4C[C@H]5CC[C@@H](C4)N5)nc(OC[C@@H]4CCCN4C)nc3c1F)CC(O)C2 (stereo partly drawn) [P-0436, 1-(4-((1R,5S)-3,8-diazabicyclo[3.2.1]octan-3-yl)-8-fluoro-2-(((S)-1-methylpyrrolidin-2-yl)methoxy)pyrido[4,3-d]pyrimidin-7-yl)-8-methyl-1,2,3,4-tetrahydroquinolin-3-ol]
15 | 10 to 100 µM | 10 to 100 µM | CN1CCC[C@H]1COc1nc(N2C[C@H]3CC[C@@H](C2)N3)c2ccc(-c3c[nH]c4cccc(Cl)c34)c(F)c2n1 [P-0294, 4-((1R,5S)-3,8-diazabicyclo[3.2.1]octan-3-yl)-7-(4-chloro-1H-indol-3-yl)-8-fluoro-2-(((S)-1-methylpyrrolidin-2-yl)methoxy)quinazoline]
16 | 0.0001 to 10 µM | 0.0001 to 10 µM | CN1CCc2cc(Oc3nc(N4[C@@H]5CC[C@H]4CNC5)c4ccc(-c5cc(O)cc6ccccc56)cc4n3)ccc2C1 [P-0238, 4-(4-((1R,5S)-3,8-diazabicyclo[3.2.1]octan-8-yl)-2-((2-methyl-1,2,3,4-tetrahydroisoquinolin-6-yl)oxy)quinazolin-7-yl)naphthalen-2-ol]
17 | 100 to 1000 µM | 10 to 100 µM | Cc1c(N)cccc1-c1ccc2c(N3C[C@H]4CC[C@@H](C3)N4)nc(OC[C@@H]3CCCN3C)nc2c1 [P-0341, 3-(4-((1R,5S)-3,8-diazabicyclo[3.2.1]octan-3-yl)-2-(((S)-1-methylpyrrolidin-2-yl)methoxy)quinazolin-7-yl)-2-methylaniline]
18 | 0.0001 to 10 µM | 10 to 100 µM | OCC1(COc2nc(N3C[C@H]4CC[C@@H](C3)N4)c3ccc(-c4cc(O)cc5ccccc45)c(F)c3n2)COC1 [P-0613, 4-(4-((1R,5S)-3,8-diazabicyclo[3.2.1]octan-3-yl)-8-fluoro-2-((3-(hydroxymethyl)oxetan-3-yl)methoxy)quinazolin-7-yl)naphthalen-2-ol]
19 | 10 to 100 µM | 10 to 100 µM | CN1CCC[C@H]1COc1nc(N2[C@@H]3CC[C@H]2CN(C(=O)NCc2ccccn2)C3)c2ccc(-c3cc(O)cc4ccccc34)cc2n1 [P-0216, (1R,5S)-8-(7-(3-hydroxynaphthalen-1-yl)-2-(((S)-1-methylpyrrolidin-2-yl)methoxy)quinazolin-4-yl)-N-(pyridin-2-ylmethyl)-3,8-diazabicyclo[3.2.1]octane-3-carboxamide]
20 | 0.0001 to 10 µM | 0.0001 to 10 µM | CN(C)CCCC(=O)N1[C@@H]2CC[C@H]1CN(c1nc(OCC34CCCN3CCC4)nc3c(F)c(-c4cc(O)cc5ccccc45)ccc13)C2 [P-0146, 4-(dimethylamino)-1-((1R,5S)-3-(8-fluoro-7-(3-hydroxynaphthalen-1-yl)-2-((tetrahydro-1H-pyrrolizin-7a(5H)-yl)methoxy)quinazolin-4-yl)-3,8-diazabicyclo[3.2.1]octan-8-yl)butan-1-one]
21 | 0.0001 to 10 µM | 100 to 1000 µM | Oc1cc(-c2ccc3c(N4C[C@H]5CC[C@@H](C4)N5)nc(N4CC5CCC(C4)N5)nc3c2F)c2ccccc2c1 [P-0381, 4-(4-((1R,5S)-3,8-diazabicyclo[3.2.1]octan-3-yl)-2-(3,8-diazabicyclo[3.2.1]octan-3-yl)-8-fluoroquinazolin-7-yl)naphthalen-2-ol]
22 | 10 to 100 µM | 10 to 100 µM | COCCS(=O)(=O)N1[C@@H]2CC[C@H]1CN(c1nc(OCC34CCCN3CCC4)nc3cc(-c4cc(O)cc5ccccc45)ccc13)C2 [P-0139, 4-(4-((1R,5S)-8-((2-methoxyethyl)sulfonyl)-3,8-diazabicyclo[3.2.1]octan-3-yl)-2-((tetrahydro-1H-pyrrolizin-7a(5H)-yl)methoxy)quinazolin-7-yl)naphthalen-2-ol]
23 | 0.0001 to 10 µM | 10 to 100 µM | CC(C)(COc1nc(N2C[C@H]3CC[C@@H](C2)N3)c2ccc(-c3cc(O)cc4ccccc34)c(F)c2n1)C(N)=O [P-0620, 3-((4-((1R,5S)-3,8-diazabicyclo[3.2.1]octan-3-yl)-8-fluoro-7-(3-hydroxynaphthalen-1-yl)quinazolin-2-yl)oxy)-2,2-dimethylpropanamide]
